Data taken from patent US10166253B2, “Positively charged co-polymers for use as antimicrobial agents” (priority 2014, dated 2019).

Tests used:
[1] = tested on: E. coli (strain NCTC 10418); experiment: Colony-forming unit (CFU) counting; type: cell-based, Escherichia coli; details: 30 minutes at 37° C. in PBS, even at 2 μg/ml
Method: (§1) Late-log phase E. coli (strain NCTC 10418), P. aeruginosa (strain PAO1, ATCC 15692) and S. aureus (Wood 46, NCTC 7121) were resuspended in PBS and treated with different concentrations of glatiramer acetate (GA) or LL-37 (Innovagen, Lund, Sweden) and incubated on a shaker for 30 minutes at 37° C. Subsequently, a dilution series was performed to achieve a suitable amount of bacteria on the 5% blood agar plates. The 5% blood agar streak plates were cultured at 37° C. for 16 h and the resulting CFUs on the blood agar plates were imaged with a digital camera and counted with the aid of the software ImageJ 1.48v.

[2] = tested on: S. aureus (Wood 46); experiment: Transmission electron microscopy of treated bacteria; type: cell-based, Staphylococcus aureus
From the text: (§2) Transmission electron microscopy (TEM) was applied to examine the ultrastructural changes in P. aeruginosa (PAO1), S. aureus (Wood 46) and E. coli (NCTC 10418) induced after treatment with GA and LL-37. […] This critical alteration in the outer membrane of E. coli has previously been described as a disintegration of the outer membrane into micelles and vesicle-like structures (Meincken, M., D. L. Holroyd, and M. Rautenbach, Atomic force microscopy study of the effect of antimicrobial peptides on the cell envelope of Escherichia coli. Antimicrob Agents Chemother, 2005. 49(10): p. 4085-92). […] After incubation with LL-37 and GA, we found burst cells, but this observation was most significant after treatment with LL-37 (FIG. 9). Scale bar, 0.5 μm. Experiments were performed as 2 replicates.

[3] = tested on: E. coli (strain NCTC 10418); experiment: Antimicrobial susceptibility testing by flow cytometry-based assay (LIVE/DEAD BacLight, Syto9/PI); type: cell-based, Escherichia coli; details: 50 μg/ml, 30 minutes
Method: (§3) E. coli (strain NCTC 10418), P. aeruginosa (Strain PAO1) and S. aureus (Wood 46, NCTC 7121) cells were grown in 5 mL of Todd Hewitt Broth medium (THB; Sigma-Aldrich). Bacteria were cultivated at 37° C. for 15 h in a 15 mL tube to obtain late-log phase cultures. Bacterial cultures were pelleted at 3096 g for 10 minutes; the supernatant was discarded and bacteria were resuspended in phosphate-buffered saline (PBS) supplemented with 40 mg/ml human albumin to mimic chemical properties of blood. Bacteria were diluted to a standardized inoculum of 10^9 CFU/mL.
(§4) Bacteria were treated with GA, LL-37, Piperacillin/Tazobactam or Vancomycin in varying concentrations, i.e. 50, 25, 10 or 2 μg/ml, for 30 minutes. As a positive control, bacteria were treated with 7% isopropanol. Hereafter, bacteria were pelleted at 3096 g for 10 minutes; the supernatant was discarded and bacteria were resuspended in PBS. The antimicrobial effect was tested in a well-established and widely used flow cytometry-based assay (LIVE/DEAD® BacLight™ Bacterial Viability and Counting Kit (L34856), Molecular Probes/Invitrogen) according to manufacturer's manual.
(§5) For each bacteria, the flow cytometry-based assay was repeated four times.
Flow cytometry was used to determine the antimicrobial activity of GA and LL-37. The flow cytometry diagrams show the results after treatment with 50 μg/ml LL-37, GA, piperacillin/tazobactam, 7% isopropanol and the untreated control. […] This gating strategy was primarily applied to avoid counting beads in the upper right corner of the FS-SS. […] Thus, a two-color fluorescence assay of bacterial viability, including PI and Syto9 staining, was applied. Syto9 stains all bacteria in a population, i.e. those with intact and those with damaged membranes. In contrast, propidium iodide (PI) penetrates only bacteria with damaged membranes, thereby making quantification of bacterial viability possible.

[4] = tested on: P. aeruginosa (PAO1); experiment: Transmission electron microscopy of treated bacteria; type: cell-based, Pseudomonas aeruginosa
From the text: as §2

[5] = tested on: S. aureus (Wood 46, NCTC 7121); experiment: Antimicrobial susceptibility testing by flow cytometry-based assay (LIVE/DEAD BacLight, Syto9/PI); type: cell-based, Staphylococcus aureus; details: 30 minutes
Method: as §3, §4, §5

[6] = tested on: E. coli (NCTC 10418); experiment: Transmission electron microscopy of treated bacteria; type: cell-based, Escherichia coli
From the text: as §2

[7] = tested on: S. aureus (Wood 46, NCTC 7121); experiment: Colony-forming unit (CFU) counting; type: cell-based, Staphylococcus aureus; details: 30 minutes at 37° C. in PBS
Method: as §1

[8] = tested on: P. aeruginosa (PAO1); experiment: Binding of Alexa Fluor 488-labeled GA to bacteria (MFI by flow cytometry); set-up: species or system Pseudomonas aeruginosa; details: PBS + 50 mM NaCl, total salt 200 mM, GA 50 and 10 μg/ml
Method: GA was diluted in freshly made 0.1 M NaHCO3 and labeled with Alexa Fluor 488 according to manufacturer's instruction. Late-log phase E. coli (strain NCTC 10418), P. aeruginosa (strain PAO1, ATCC 15692) and S. aureus (Wood 46, NCTC 7121) were resuspended in PBS or PBS supplemented with 50 mM NaCl; treated with either 50 μg/ml or 10 μg/ml Alexa Fluor® 488-labeled GA and incubated on a shaker at 37° C. for 30 minutes. Hereafter, bacteria were diluted 1:100 in PBS and analyzed on a Novocyte™ flow cytometer.
This constitutes a problem when for example treating patients with cystic fibrosis. These patients have a high salt concentration in their lungs of about 150-200 mM, and it is therefore critical that drugs used for treating these patients are active at such high salt concentrations (Gilljam H et al., Scand J Clin Lab Invest. 1989 April; 49(2):121-4). Therefore, the binding capacity of GA to bacteria resuspended in PBS or in PBS supplemented with 50 mM NaCl. PBS+50 mM NaCl results in a total salt concentration of 200 mM. […]
Mean Fluorescence intensities (MFI) were assessed by flow cytometry to quantify the binding capacity of GA to the bacterial membrane. […]

Substance: Glatiramer acetate [GA]
- antibacterial effect by CFU counting (in words) [1]: enhanced ability to kill E. coli
- ultrastructural changes (TEM, in words) [2]: burst cells
- percentage of bacteria testing positive for PI [3]: 17.7%
- percentage of bacteria testing positive for Syto-9 [3]: 78.3%
- ultrastructural changes (TEM, in words) [4]: dramatically reduced number of P. aeruginosa
- percentage of bacteria testing positive for PI [5]: 12.1%
- ultrastructural changes (TEM, in words) [6]: Signs of damage to the bacterial membrane
- antibacterial effect by CFU counting (in words) [7]: low antimicrobial impact
- binding capacity to bacteria (MFI, in words) [8]: retained its binding capacity
